Experimental data reported in PubChem BioAssay AID1259407 (Chemical Carcinogenesis Research Information System (CCRIS), 2018).
Activity calls are given as the source filed them. How the calls were made is not given here.

Test system: CCRIS mutagenicity, Ames/micronucleus/aberration tests
Test: CCRIS mutagenicity studies
[1] = Test System: AMES SALMONELLA TYPHIMURIUM, Strain/Indicator: TA98, Metabolic Activation: NONE, Method: PREINCUBATION
[2] = Test System: AMES SALMONELLA TYPHIMURIUM, Strain/Indicator: TA98, Metabolic Activation: NONE, Method: STANDARD PLATE
[3] = Test System: AMES SALMONELLA TYPHIMURIUM, Strain/Indicator: TA100, Metabolic Activation: NONE, Method: STANDARD PLATE
[4] = Test System: AMES SALMONELLA TYPHIMURIUM, Strain/Indicator: TA1535, Metabolic Activation: NONE, Method: STANDARD PLATE
[5] = Test System: AMES SALMONELLA TYPHIMURIUM, Strain/Indicator: TA1537, Metabolic Activation: NONE, Method: STANDARD PLATE
[6] = Test System: AMES SALMONELLA TYPHIMURIUM, Strain/Indicator: TA100, Metabolic Activation: S-9, Method: STANDARD PLATE

For `C/C=C1\CC2C=CC1C2` (stereo unspecified), the mutagenic call (Test System: AMES SALMONELLA TYPHIMURIUM, Strain/Indicator: TA98, Metabolic Activation: HAMSTER, LIVER, S-9, AROCLOR 1254 (10%), Method: PREINCUBATION) was “inactive; negative”, the mutagenic call [1] was “inactive; negative” and the mutagenic call [2] was “inactive; negative”. For the same compound, the mutagenic call (Test System: AMES SALMONELLA TYPHIMURIUM, Strain/Indicator: TA98, Metabolic Activation: RAT LIVER S-9, AROCLOR 1254, Method: STANDARD PLATE) was “inactive; negative”, the mutagenic call (Test System: AMES SALMONELLA TYPHIMURIUM, Strain/Indicator: TA98, Metabolic Activation: RAT, LIVER, S-9, AROCLOR 1254 (10%), Method: PREINCUBATION) was “inactive; negative” and the mutagenic call (Test System: AMES SALMONELLA TYPHIMURIUM, Strain/Indicator: TA100, Metabolic Activation: HAMSTER, LIVER, S-9, AROCLOR 1254 (10%), Method: PREINCUBATION) was “inactive; negative”. For the same compound, the mutagenic call (Test System: AMES SALMONELLA TYPHIMURIUM, Strain/Indicator: TA100, Metabolic Activation: NONE, Method: PREINCUBATION) was “inactive; negative”, the mutagenic call [3] was “inactive; negative” and the mutagenic call (Test System: AMES SALMONELLA TYPHIMURIUM, Strain/Indicator: TA100, Metabolic Activation: RAT LIVER S-9, AROCLOR 1254, Method: STANDARD PLATE) was “inactive; negative”. For the same compound, the mutagenic call (Test System: AMES SALMONELLA TYPHIMURIUM, Strain/Indicator: TA100, Metabolic Activation: RAT, LIVER, S-9, AROCLOR 1254 (10%), Method: PREINCUBATION) was “inactive; negative”, the mutagenic call (Test System: AMES SALMONELLA TYPHIMURIUM, Strain/Indicator: TA1535, Metabolic Activation: HAMSTER, LIVER, S-9, AROCLOR 1254 (10%), Method: PREINCUBATION) was “inactive; negative” and the mutagenic call (Test System: AMES SALMONELLA TYPHIMURIUM, Strain/Indicator: TA1535, Metabolic Activation: NONE, Method: PREINCUBATION) was “inactive; negative”. The mutagenic call [4] was “inactive; negative”, the mutagenic call (Test System: AMES SALMONELLA TYPHIMURIUM, Strain/Indicator: TA1535, Metabolic Activation: RAT LIVER S-9, AROCLOR 1254, Method: STANDARD PLATE) was “inactive; negative” and the mutagenic call (Test System: AMES SALMONELLA TYPHIMURIUM, Strain/Indicator: TA1535, Metabolic Activation: RAT, LIVER, S-9, AROCLOR 1254 (10%), Method: PREINCUBATION) was “inactive; negative”. The mutagenic call (Test System: AMES SALMONELLA TYPHIMURIUM, Strain/Indicator: TA1537, Metabolic Activation: HAMSTER, LIVER, S-9, AROCLOR 1254 (10%), Method: PREINCUBATION) was “inactive; negative”, the mutagenic call (Test System: AMES SALMONELLA TYPHIMURIUM, Strain/Indicator: TA1537, Metabolic Activation: NONE, Method: PREINCUBATION) was “inactive; negative” and the mutagenic call [5] was “inactive; negative”. The mutagenic call (Test System: AMES SALMONELLA TYPHIMURIUM, Strain/Indicator: TA1537, Metabolic Activation: RAT LIVER S-9, AROCLOR 1254, Method: STANDARD PLATE) was “inactive; negative”, the mutagenic call (Test System: AMES SALMONELLA TYPHIMURIUM, Strain/Indicator: TA1537, Metabolic Activation: RAT, LIVER, S-9, AROCLOR 1254 (10%), Method: PREINCUBATION) was “inactive; negative” and the mutagenic call (Test System: AMES SALMONELLA TYPHIMURIUM, Strain/Indicator: TA1538, Metabolic Activation: NONE, Method: STANDARD PLATE) was “inactive; negative”. For the same compound, the mutagenic call (Test System: AMES SALMONELLA TYPHIMURIUM, Strain/Indicator: TA1538, Metabolic Activation: RAT LIVER S-9, AROCLOR 1254, Method: STANDARD PLATE) was “inactive; negative”, the mutagenic call (Test System: CHINESE HAMSTER OVARY, Strain/Indicator: CHO-K1-BH4 (HGPRT)/6-THIOGUANINE, Metabolic Activation: NONE) was “inactive; negative” and the mutagenic call (Test System: CHINESE HAMSTER OVARY, Strain/Indicator: CHO-K1-BH4 (HGPRT)/6-THIOGUANINE, Metabolic Activation: RAT LIVER S-9, AROCLOR 1254) was “inactive; negative”.
In the case of `Nc1snc2c(Cl)cc(Cl)cc12`, the mutagenic call [2] is reported as “inactive; negative”, the mutagenic call (Test System: AMES SALMONELLA TYPHIMURIUM, Strain/Indicator: TA98, Metabolic Activation: S-9, Method: STANDARD PLATE) is reported as “inactive; negative” and the mutagenic call [3] is reported as “inactive; negative”. For the same compound, the mutagenic call [6] was “active; positive”, the mutagenic call [4] was “inactive; negative” and the mutagenic call (Test System: AMES SALMONELLA TYPHIMURIUM, Strain/Indicator: TA1535, Metabolic Activation: S-9, Method: STANDARD PLATE) was “inactive; negative”. The mutagenic call [5] was “inactive; negative” and the mutagenic call (Test System: AMES SALMONELLA TYPHIMURIUM, Strain/Indicator: TA1537, Metabolic Activation: S-9, Method: STANDARD PLATE) was “active; positive”.
For `O[C@H]1[C@H]2O[C@H]2c2ccc3c(ccc4ccccc43)c2[C@@H]1O`, the mutagenic call [1] was “active; positive” and the mutagenic call (Test System: CHINESE HAMSTER V-79, Strain/Indicator: V-79/6-THIOGUANINE, Metabolic Activation: NONE) was “active; positive”.
In the case of `O=Nc1c2ccccc2c2ccc3cccc4ccc1c2c43`, the mutagenic call (Test System: AMES SALMONELLA TYPHIMURIUM, Strain/Indicator: TA97, Metabolic Activation: NONE, Method: STANDARD PLATE) is reported as “active; positive”, the mutagenic call (Test System: AMES SALMONELLA TYPHIMURIUM, Strain/Indicator: TA98 (1,8-DNP6), Metabolic Activation: NONE, Method: STANDARD PLATE) is reported as “active; positive” and the mutagenic call (Test System: AMES SALMONELLA TYPHIMURIUM, Strain/Indicator: TA98 (NR), Metabolic Activation: NONE, Method: STANDARD PLATE) is reported as “active; positive”. The mutagenic call (Test System: AMES SALMONELLA TYPHIMURIUM, Strain/Indicator: TA98, Metabolic Activation: NONE', Method: STANDARD PLATE) was “active; positive”, the mutagenic call [2] was “active; positive” and the mutagenic call [3] was “active; positive”. For the same compound, the mutagenic call (Test System: AMES SALMONELLA TYPHIMURIUM, Strain/Indicator: TA104, Metabolic Activation: NONE, Method: STANDARD PLATE) was “active; positive” and the mutagenic call (Test System: CHINESE HAMSTER OVARY, Strain/Indicator: CHO-K1-BH4 (HGPRT), Metabolic Activation: NONE) was “active; positive”.
With `C=C1C[C@@H]2CC[C@]34C[C@@H]5O[C@@H]6[C@H](O[C@H]7CC[C@H](CC(=O)O[C@@H]8[C@H](C)[C@@H]9O[C@@H]%10C[C@]%11(C[C@@H]%12O[C@@]%13(C[C@H](C)[C@@H]%12O%11)C[C@H](C)[C@@H]%11O[C@@H]([C@@H](O)C[C@H](O)CO)C[C@H]%11O%13)O[C@@H]%10C[C@@H]9O[C@H]8C[C@@H]8O[C@H](CC[C@@H]1O2)C[C@H](C)C8=C)O[C@@H]7[C@H]6O3)[C@H]5O4` the mutagenic call (Test System: Mouse lymphoma, Strain/Indicator: L5178Y (tk+/tk-), Metabolic Activation: None, Method: Suspension/plate) was “inactive; negative” and the mutagenic call (Test System: Mouse lymphoma, Strain/Indicator: L5178Y (tk+/tk-), Metabolic Activation: Rat, Liver, S-9, Aroclor 1254, Method: Suspension/plate) was “active; equivocal (previous evaluation positive)”.
With `C=CCOc1ccccc1OCC(O)CNC(C)C` (stereo unspecified) the mutagenic call (Test System: AMES SALMONELLA TYPHIMURIUM, Strain/Indicator: TA98, Metabolic Activation: NONE) was “inactive; negative”, the mutagenic call [2] was “inactive; negative” and the mutagenic call (Test System: AMES SALMONELLA TYPHIMURIUM, Strain/Indicator: TA98, Metabolic Activation: RAT, LIVER, S-9, AROCLOR 1254) was “inactive; negative”. For the same compound, the mutagenic call (Test System: AMES SALMONELLA TYPHIMURIUM, Strain/Indicator: TA98, Metabolic Activation: RAT, LIVER, S-9, AROCLOR 1254, Method: STANDARD PLATE) was “inactive; negative”, the mutagenic call (Test System: AMES SALMONELLA TYPHIMURIUM, Strain/Indicator: TA100, Metabolic Activation: NONE) was “inactive; negative” and the mutagenic call [3] was “inactive; negative”. The mutagenic call (Test System: AMES SALMONELLA TYPHIMURIUM, Strain/Indicator: TA100, Metabolic Activation: RAT, LIVER, S-9, AROCLOR 1254) was “inactive; negative”, the mutagenic call (Test System: AMES SALMONELLA TYPHIMURIUM, Strain/Indicator: TA100, Metabolic Activation: RAT, LIVER, S-9, AROCLOR 1254, Method: STANDARD PLATE) was “inactive; negative” and the mutagenic call (Test System: AMES SALMONELLA TYPHIMURIUM, Strain/Indicator: TA1535, Metabolic Activation: NONE) was “inactive; negative”. The mutagenic call (Test System: AMES SALMONELLA TYPHIMURIUM, Strain/Indicator: TA1535, Metabolic Activation: RAT, LIVER, S-9, AROCLOR 1254) was “inactive; negative”, the mutagenic call (Test System: AMES SALMONELLA TYPHIMURIUM, Strain/Indicator: TA1537, Metabolic Activation: NONE) was “inactive; negative” and the mutagenic call (Test System: AMES SALMONELLA TYPHIMURIUM, Strain/Indicator: TA1537, Metabolic Activation: RAT, LIVER, S-9, AROCLOR 1254) was “inactive; negative”. For the same compound, the mutagenic call (Test System: CHINESE HAMSTER V-79, Strain/Indicator: V-79/6-THIOGUANINE, Metabolic Activation: NONE, Method: REPLATING) was “inactive; negative”, the mutagenic call (Test System: CHINESE HAMSTER V-79, Strain/Indicator: V-79/6-THIOGUANINE, Metabolic Activation: RAT, HEPATOCYTES, Method: REPLATING) was “inactive; negative” and the mutagenic call (Test System: UDS HUMAN HEPATOCYTES, Strain/Indicator: THY INCORP, Metabolic Activation: NONE, Method: AUTORADIOGRAPHY) was “inactive; negative”. For the same compound, the mutagenic call (Test System: UDS RAT HEPATOCYTES, Strain/Indicator: THY INCORP, Metabolic Activation: NONE, Method: AUTORADIOGRAPHY) was “inactive; negative”.
With `Cc1ccc2c(c1)c(=NC(=O)c1ccccc1[N+](=O)[O-])sn2C(=O)c1ccccc1[N+](=O)[O-]` the mutagenic call [6] was “inactive; negative”.
